These results are taken from PubChem BioAssay (NCI).

Holding throughout (test): NCI anticancer screen, dose series, 48 h
Experiment [1] has as its system UACC-62 melanoma.
In experiment [2] the test system is NCI-H522 lung.
Experiment [3] has as its system MDA-MB-435.
The subject of experiment [4] is HCT-116 colon.
Experiment [5] relates to HL-60(TB) leukemia.
Experiment [6] relates to OVCAR-4 ovarian.
Experiment [7] relates to MALME-3M melanoma.
Experiment [8] relates to A498 renal.
Experiment [9] relates to OVCAR-3 ovarian.
For experiment [10], the system named is OVCAR-8 ovarian.

Molecules are shown by their SMILES. Values joined by “and” are separate entries in the source; they are usually repeats but may differ in a detail not shown here. Equal entries are not always repeated.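 All cell lines were grown in 96-well plates and treated with compound for 48 hours. The concentration for 50% growth inhibition is given as GI50. The concentration for full growth arrest is given as TGI.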

For `CC(C)(C)OC(=O)NCC(C#N)CNC(=O)OC(C)(C)C`, the TGI in experiment [1], in experiment [2], in [3], in experiment [4], in experiment [5] and in experiment [6] was more than 100 µM each time. The TGI in experiment [7], in [8], in experiment [9] and in experiment [10] was more than 100 µM in each case.

For `CCOC(=O)c1c(NC(=O)c2ccc(C(C)C)cc2)sc2c(CN(C)C)c(O)ccc12`, the GI50 in [1] is 1.82 µM; in experiment [2], 2.01 µM; in [3] it was 1.77 µM; in experiment [4], 1.78 µM; in experiment [5] it was 1.77 µM; in [6] it was 3.7 µM. The GI50 in experiment [7] is 1.72 µM; in experiment [8] it was 1.86 µM; in experiment [9], 3.52 µM; in [10] it was 3.56 µM. Also, the TGI in experiment [1] was 3.48 µM; in experiment [2], 4.53 µM; in experiment [3], 3.37 µM; in [4], 3.36 µM; in [5] it was 4.2 µM; in [6], 13.3 µM. The TGI in [7] was 3.22 µM; in experiment [8], 9.02 µM; in [9] it was 11.9 µM; in [10], 16.3 µM.

Turning to `COc1cc(/C=C2\CN(C)CC3=C2Nc2nc(SC)[nH]c(=O)c2C3c2cc(OC)c(OC)c(OC)c2)cc(OC)c1OC` (stereo not given), the GI50 in experiment [1] was 2.06 µM; in [2], 2.04 µM; in experiment [3], 2.51 µM; in experiment [4], 1.66 µM; in experiment [5] it was 2.26 µM; in experiment [6], 4.99 µM. Moreover, the GI50 is 2.82 µM in experiment [7], 9.58 µM in experiment [8], 2.64 µM in experiment [9] and 2.89 µM in [10]. In addition, the TGI in experiment [1] worked out at 5.11 µM; in [2], 4.69 µM; in experiment [3], 8.46 µM; in experiment [4], 3.17 µM; in experiment [5] it was 9.66 µM; in [6], 21.2 µM. For the same compound, the TGI in [7] was 9.44 µM; in experiment [8], 21.5 µM; in experiment [9] it was 6.72 µM; in experiment [10] it was more than 100 µM.

`CC(C)n1c(/C=C/[C@@H](O)C[C@@H](O)CC(=O)O)c(-c2ccc(F)cc2)c2ccccc21`: the GI50 in experiment [1] was 0.526 µM and 0.537 µM; in experiment [2] it was 0.995 µM and 0.999 µM; in experiment [3], 10.5 µM and 14.4 µM; in experiment [4] it was 1.12 µM and 1.56 µM; in experiment [5], 14.5 µM and 10.9 µM; in experiment [6], 10.4 µM and 12.9 µM. Besides, the GI50 in experiment [7] was 26.7 µM and 27.4 µM; in experiment [8], 0.164 µM and 0.219 µM; in [9] it was 12.2 µM and 15 µM; in [10] it was 1.32 µM and 0.842 µM. The TGI in experiment [1] was 34.4 µM and 25 µM; in experiment [2], more than 100 µM; in [3] it was more than 100 µM; in experiment [4] it was 11.1 µM and > 100 µM; in experiment [5], 55.2 µM and > 100 µM; in experiment [6], more than 100 µM. The TGI in [7] was more than 100 µM; in experiment [8], 0.527 µM and 0.848 µM; in experiment [9] it was 46.7 µM and > 100 µM; in [10], more than 100 µM.

Regarding `CSc1ccc(C2=Nn3c(nnc3-c3ccc(F)c(Cl)c3)SC2)cc1`, the GI50 was 2.04 µM in [1]; 4.38 µM in experiment [2]; 1.5 µM in experiment [3]; 9.85 µM in experiment [4]; 5.39 µM in [5]; 23.6 µM in experiment [6]. Also, the GI50 in experiment [7] is 2.01 µM; in [8] it was 10 µM; in experiment [9] it was 5.62 µM; in [10], 22.2 µM. Moreover, the TGI in [1] was 8.19 µM; in experiment [2], 21.4 µM; in experiment [3], 5.21 µM; in experiment [4], 23.4 µM; in experiment [5], more than 100 µM; in [6] it was 85.1 µM. Moreover, the TGI was 10.9 µM in experiment [7], 30.2 µM in experiment [8], 21 µM in experiment [9] and more than 100 µM in [10].

For the compound `S=C(N/N=C/c1cc(Cl)cc(Cl)c1)NC12CC3CC(CC(C3)C1)C2`, the GI50 in [1] was 10.2 µM; in [2], more than 63.4 µM; in [3], more than 27.6 µM; in experiment [4] it was 5.24 µM; in [5], more than 100 µM; in [6], 2.12 µM. For the same compound, the GI50 in experiment [7] was 5.12 µM; in [8], 2.19 µM; in experiment [9], 6.03 µM; in [10], 4.87 µM. Moreover, the TGI in experiment [1] is more than 100 µM; in [2] it was more than 100 µM; in [3], more than 100 µM; in [4], more than 100 µM; in experiment [5] it was more than 100 µM; in experiment [6], 6.07 µM. In addition, the TGI in [7] was 50.7 µM; in [8], 7.73 µM; in experiment [9] it was more than 100 µM; in experiment [10], more than 100 µM.
